Data taken from ChEMBL document CHEMBL3507680, “University of Dundee, Gates Library screen for HepG2 cell viability”.

Assay: Human HepG2 cell viability assay in 384 well format
Format: toxicity, cell-based
Set-up: dose 125 nL, time 70.5 hour; cytotoxicity at 70.5 h: concentration not given beside the values
Conditions: HepG2 cells, read-out: Inhibition

CC(C(=O)N1CCn2cncc2C1)N1CCCC1 (configuration not stated)
cytotoxicity at 70.5 h: -0.791%

c1ccc2c(Cc3nnc([C@H]4CCN(C5CCOCC5)C4)o3)c[nH]c2c1
cytotoxicity at 70.5 h: -0.535%

CCN(C)C[C@@H]1CN(C(=O)c2cc(C(F)(F)F)n[nH]2)C[C@@H]1CO
cytotoxicity at 70.5 h: -10%

Cc1cc(-c2cnc(N3CCCC(C)C3)nc2-c2cccnc2C)on1 (configuration not stated)
cytotoxicity at 70.5 h: 23.3%

Cc1noc(C2CCCN(Cn3cc(Br)cn3)C2)n1 (configuration not stated)
cytotoxicity at 70.5 h: -8.2%

Cc1nc(C)c(C(=O)N2Cc3ccccc3OCC2Cn2ccnc2)o1 (configuration not stated)
cytotoxicity at 70.5 h: -1.03%

CCOCc1ncn2c1CN(S(=O)(=O)c1cccs1)CC2
cytotoxicity at 70.5 h: -0.803%

COc1ccc(CC(=O)N2CC[C@@]3(O)CCNC[C@H]3C2)c(OC)c1
cytotoxicity at 70.5 h: -7.58%

Cc1ccc(F)c(OC2(C(=O)O)CCN(C(=O)C3CCCC3)CC2)c1
cytotoxicity at 70.5 h: -4.91%

c1cncc(N2CCOCC3(CN(Cc4cccs4)CCO3)C2)c1 (configuration not stated)
cytotoxicity at 70.5 h: 19.2%

CN(C)CC(=O)N1Cc2nc(C(=O)NCc3ccncc3)oc2C1
cytotoxicity at 70.5 h: -14.7%

CC(=O)Nc1cccc([C@H]2C[C@@H](NC(C)=O)CCO2)c1
cytotoxicity at 70.5 h: 13.2%

CCCn1cc(C(=O)N(C)Cc2nc(-c3ccccn3)no2)c(C)n1
cytotoxicity at 70.5 h: -8.48%

Cc1cccc(C2N3CCC4(CC3)c3[nH]c5ccccc5c3CCN24)n1 (configuration not stated)
cytotoxicity at 70.5 h: 5.13%

CC(C)(C)CCS(=O)(=O)NCCc1csc(N2CCCC2)n1
cytotoxicity at 70.5 h: -2.83%

Cc1nc(C2CCN(Cc3ncc[nH]3)CC2)no1
cytotoxicity at 70.5 h: 19.7%

CC(=O)N1CCC2(C1)c1ccccc1S(=O)(=O)N2C (configuration not stated)
cytotoxicity at 70.5 h: -7.77%

COc1cc2c(cc1CN1CCc3sccc3C1C)OCCO2 (configuration not stated)
cytotoxicity at 70.5 h: 2.33%

CC(=O)N[C@@H]1CN(C(=O)c2cnccn2)C[C@H]1c1ccc(C)cc1
cytotoxicity at 70.5 h: -11.4%

Cc1ccc2cccc(Oc3nc(C)c(C(=O)O)s3)c2n1
cytotoxicity at 70.5 h: 14.9%

O=C(Cc1cccc(F)c1)N1CCc2ncnc(NC3CCC3)c2CC1
cytotoxicity at 70.5 h: 2.52%

CC(COCC(F)(F)F)NC(=O)c1ccc(-c2ccco2)[nH]c1=O (configuration not stated)
cytotoxicity at 70.5 h: -1.67%

Cc1nc(CN2CCC3(CC2)NC(=O)CC3c2ccncc2)cs1 (configuration not stated)
cytotoxicity at 70.5 h: -5.12%

O=C(NCC(O)c1ccsc1)c1sccc1OC(F)F (configuration not stated)
cytotoxicity at 70.5 h: -13.8%

CC(C)[C@H]1CN(Cc2ccccn2)C[C@@H]1NC(=O)CC1CCC1
cytotoxicity at 70.5 h: -3.45%

O=C(COCC1CC1)N1CCSCC1
cytotoxicity at 70.5 h: 2.26%

Cc1nn(C)c(C)c1C(C(=O)O)N1CCc2ccccc2C1 (configuration not stated)
cytotoxicity at 70.5 h: 0.959%

CN1CCC(c2cccc(-c3ccc(C(=O)O)cc3)n2)CC1
cytotoxicity at 70.5 h: -2.41%

CCN(c1ccsc1C(=O)N1CCSCC1)S(=O)(=O)c1ccc(Cl)cc1
cytotoxicity at 70.5 h: -3.47%

Cc1ncoc1C(=O)N1CCc2[nH]nc(-c3ccc4c(c3)OCO4)c2C1
cytotoxicity at 70.5 h: 16.8%

CCN(CC)c1ccc(NS(=O)(=O)c2cccnc2)cn1
cytotoxicity at 70.5 h: -1.98%

Cc1cc(C(=O)N[C@H](C)c2onc(-c3cccnc3)c2C(=O)O)c(C)o1
cytotoxicity at 70.5 h: -2.03%

CN(C)c1cc2c(nn1)CCN(C(=O)Cc1ccc3c(c1)CCO3)C2
cytotoxicity at 70.5 h: -5.69%

COc1cccc(COCC(=O)NC(C(N)=O)c2ccccc2)c1 (configuration not stated)
cytotoxicity at 70.5 h: 3.41%

CN(C)[C@@H]1CN(C(=O)c2cc3ccc(F)cc3[nH]2)C[C@H]1O
cytotoxicity at 70.5 h: -2.24%

Cc1ccc(C(=O)N2CCCN(Cc3cccs3)CC2)c(=O)[nH]1
cytotoxicity at 70.5 h: -0.458%

CC1(C)CC(NC(=O)c2cnn(-c3ccccc3F)c2N)CC(C)(C)N1
cytotoxicity at 70.5 h: 19.7%

COC(=O)C1CCN(C(=O)c2ccc(N(C)S(C)(=O)=O)c(C)c2)CC1
cytotoxicity at 70.5 h: -10.1%

CCC(C)(CNC(=O)Nc1nncs1)N1CCOCC1 (configuration not stated)
cytotoxicity at 70.5 h: -13.4%

CC(C)c1nc(C2CCCN2CCN2CCCCC2)no1 (configuration not stated)
cytotoxicity at 70.5 h: -5.16%

COCc1noc(CN2CCCCC2CCc2cccs2)n1 (configuration not stated)
cytotoxicity at 70.5 h: -14.8%

O=C(O)CCn1ccc2cc(Br)ccc21
cytotoxicity at 70.5 h: 9.71%

Cc1noc(C)c1CNS(=O)(=O)N(C)Cc1ccc(Cl)cc1
cytotoxicity at 70.5 h: -5.95%

CC(=O)N1CCC(Cc2cnc(-c3c(C)nn(C)c3C)cn2)C1 (configuration not stated)
cytotoxicity at 70.5 h: -25.8%

Cc1nc(CN2CCN(C(=O)c3sccc3C)CC2)cs1
cytotoxicity at 70.5 h: -11.5%

COC(=O)[C@H]1CN(C(=O)NC(C)C)CCN1C(=O)c1cccs1
cytotoxicity at 70.5 h: -5.45%

COCCCNC(=O)N1CCCC(c2nncn2C)C1 (configuration not stated)
cytotoxicity at 70.5 h: -12.4%

Cc1cnn(CCNCc2nc(-c3ccccc3Cl)no2)c1
cytotoxicity at 70.5 h: 31.1%

Nc1cc(C(=O)NC2CCCN(CCCc3ccccc3)C2)ccn1 (configuration not stated)
cytotoxicity at 70.5 h: 12.3%

COc1ccc(CNC(=O)NC2CCN(c3ccccc3)C2=O)cc1 (configuration not stated)
cytotoxicity at 70.5 h: -4.11%

CN(C)Cc1cc(=O)n2c(n1)CN(C(=O)Cc1ccsc1)CCC2
cytotoxicity at 70.5 h: -12.5%

C[C@@H]1CN(C(=O)CCN2CCCC2)CC[C@@]1(O)C1CCOCC1
cytotoxicity at 70.5 h: -6.69%

Cc1ccc(C(C(=O)N2CCN(C(=O)c3ccc[nH]3)CC2)N(C)C)cc1 (configuration not stated)
cytotoxicity at 70.5 h: -3.84%

CC1CN(CC(=O)NCc2ccccc2)CCN1Cc1nccn1C (configuration not stated)
cytotoxicity at 70.5 h: 0.503%

CCn1cnnc1CNC(=O)N1CCC(Cc2cccnc2)CC1
cytotoxicity at 70.5 h: 34.8%

CC1=C(C(N)=O)C(c2cn(C)nc2C)N2C(=O)CSC2=N1 (configuration not stated)
cytotoxicity at 70.5 h: -9.38%

CS(=O)(=O)c1cccc(OCC(=O)N2CCCC2c2ccc[nH]2)c1 (configuration not stated)
cytotoxicity at 70.5 h: -7.78%
